Patent publication US5925667A, “Pyrrolidine derivative, anti-ulcer drug, and antibacterial drug” (Shiseido Co., Ltd., priority 1997, dated 1999)

What was measured:
[1] = MTT: Cell Damaging and Protecting Effect Test; format: cell-based, male Japanese White rabbit; details: rabbit, gastric mucosa cells, final concentration 10^-4 M, smaller value is better, read-out: cell damaging rate (MTT)
Source text: MTT: Cell Damaging and Protecting Effect Test
It is confirmed that there is no toxicity in cell level. Those having a toxicity in cell level are inappropriate as an anti-ulcer drug.
A male Japanese White rabbit (2.5 to 3 kg) was anesthetized to death by Nembutal™ and, immediately thereafter, its stomach was removed. The greater curvature of the stomach was incised so as to remove the stomach contents therefrom. After the mucosal surface was washed with HBSS (Hanks' Balanced Salt Solution), the stomach in ice-cooled HBSS was transferred to a laboratory. Then, after the pyloric antrum was removed, the gastric corpus mucosa was separated by a spatula and then minced into 2 to 3 mm^3 pieces in BME (Basal Medium Eagle). Thereafer, these pieces were shaken at 120 to 130 cycles/minute for 15 minutes at 37° C. in BME 60 ml containing 280 U/ml of dispase and 30 to 50 U/ml of collagenase. Here, the concentration of collagenase was appropriately changed for each lot in view of the state of cells. The pieces were washed twice with EBSS (Earle's Balanced Salt Solution) containing 1 mM of EDTA and then shaken in MEM (Minimum Essential Medium) containing 1 mM of EDTA at 37° C. for 5 minutes. Subsequently, they were shaken in the dispase and collagenase having the same concentrations as those mentioned above for 15 minutes so as to remove the supernatant and then further shaken at 37° C. for 50 to 60 minutes at 120 to 130 cycles/minute. Then, after being washed twice with HBSS, Ham F12 containing 2% of Ultrocer G™ was used to attain the concentration of 1×10^6 cells/ml. Thus formed suspension was dispensed in each well of a 96-well plate by 200 μl. The plate was incubated in the atmosphere composed of 5% CO2 and 95% air at 37° C. for three days so as to attain a confluent state and then subjected to MTT assay.
The sample compound was dissolved in DMSO so as to attain a concentration of 10^-2 M and then diluted with HBSS containing 2% of Ultrocer G™ so as to attain a final concentration of 10^-4 M. To each group, which 8 wells were used for, 10 μl of MTT reagent was added immediately after 100 μl of the medium in each well was exchanged for same volume of the resulting solution of the sample compound. After being incubated in an atmosphere composed of 5% CO2 and 95% air at 37° C. for 4 hours, thus formed solution was centrifuged and then its supernatant was discarded. Subsequently, 100 μl of 100% ethanol was added to the residue so as to dissolve MTT formazan. Then, the absorbance (OD: 570 to 630) was measured by a microplate reader. This method utilizes a phenomenon in which MTT is changed to MTT formazan only by mitochondria of living cells so as to change color.
The cell damaging or cell protecting effect of the sample compound at the final concentration of 10^-4 M was expressed as cell damaging rate (%) as follows:
cell damaging rate (%)=(1-(absorbance in sample group/absorbance in control group))×100
Accordingly, the smaller value is better in the cell damaging rate.

[2] = tested on: HP NCTC 11637; assay: AHP: Antibacterial Activity Test Against Helicobacter pyroli (agar dilution MIC); format: cell-based; details: NCTC11637, 168 h, 7 days

SMILES | cytotoxicity at 4 h, 100 µM [1] [%] | MIC [2] [mg/L]
CCN1CCCC1CNC(=O)c1ccc(OCC=C(C)C)c(OCC=C(C)C)c1 (stereo not shown) [Example 7, 1-ethyl-2-(3,4-diprenyloxybenzoylaminomethyl)pyrrolidine] | 28 | –
CCN1CCCC1CNC(=O)c1cc(OCC=C(C)C)ccc1OCC=C(C)C (stereo not shown) [Example 6, 1-ethyl-2-(2,5-diprenyloxybenzoylaminomethyl)pyrrolidine] | 34 | –
CCN1CCCC1CNC(=O)c1cc(OC/C=C(\C)CCC=C(C)C)ccc1OC/C=C(\C)CCC=C(C)C (stereo not shown) [Example 10, 1-ethyl-2-(2,5-digeranyloxybenzoylaminomethyl)pyrrolidine] | 15 | < 3.13
